Here are results for 6 molecules from US12551563B2, “ERK5 degraders as therapeutics in cancer and inflammatory diseases” (DANA-FARBER CANCER INSTITUTE, INC., priority 2019, dated 2026).

Type in all cases: cell-based
Experiment [1] addresses T1, ERK5 (Homo sapiens, UniProt Q13164). Kind of experiment: Western blot, rescue of compound 7-induced ERK5 degradation by pretreatment in MIA Paca-2 cells. The note with it: for Rescue of ERK5 degradation induced by bispecific compound 7: then 1 μM compound 7 for 24 h (FIG. 3). Also on record: immunoblotted with primary antibodies against ERK5 (Cell Signaling®); endogenous in cells; host or cells: MIA PaCa-2. The method, then:
(§1) MIA Paca-2 cells were treated with 0, 0.1, 1, or 10 μM of bispecific compounds 3-7 for 24 hours. Cells were then lysed in RIPA buffer (Sigma®) containing protease/phosphatase inhibitor cocktail (Roche®). The protein concentrations were measured by bicinchoninic acid assay (BCA) analysis (Pierce™). Equal amounts of protein were resolved by 4-12% Tris-Base gels (Invitrogen™), and then transferred to the Immuno-Blot PVDF membrane (BioRad), and immunoblotted with primary antibodies against ERK5 (Cell Signaling®) and […] (Cell Signaling®), and then immunoblotted with IRDye®800-labeled goat anti-rabbit IgG and IRDye®800-labeled goat anti-mouse IgG (LI-COR) secondary antibodies. The membranes were detected on Odyssey® CLx system.
MIA Paca-2 cells were pretreated with 10 μM XMD17-109 (the parental compound and known ERK5 inhibitor; available from, e.g., MedChemExpress, Cat. No. HY-15665, Monmouth Junction, N.J.), 10 μM DGY-05-180 (VHL ligand), 0.1 μM Bortezomib (a proteasome inhibitor; available from, e.g., Millipore Sigma, Cat. No. 179324-69-7, Burlington, Mass.), and 1 μM MLN4924 (a neddylation inhibitor; available from, e.g., MedChemExpress, Cat. No. HY-70062, Monmouth Junction, N.J.), for 2 h, and then treated with 1 μM bispecific compound 7 for 24 h. Cells were lysed and immunoblotted as described above with antibodies to ERK5 and GAPDH (Cell Signaling®).

The target in experiment [2] is T1, ERK5. Kind of experiment: Western blot of ERK5 degradation in A375 cells. Also noted: immunoblotted with primary antibodies against ERK5 (Cell Signaling®); endogenous in cells; host or cells: A375. Conditions: 24 hours, at 1 and 10 μM (FIG. 2). How it is done: as §1
A375 cells were treated with 0, 0.1, 1, or 10 μM of bispecific compounds 3, 4, and 7-9 for 24 hours. Cells were lysed and immunoblotted as described above with antibodies to ERK5 and β-Actin.

Experiment [3] concerns the target T1, ERK5. Kind of experiment: Western blot of ERK5 degradation in MIA Paca-2 cells. Also noted: immunoblotted with primary antibodies against ERK5 (Cell Signaling®); endogenous in cells; host or cells: MIA PaCa-2. Conditions: 24 hours, at 1 and 10 μM (FIG. 1). How it is done: as §1
For orientation: In western blotting, separated proteins are transferred to a membrane and probed.

Experiment [4] deals with T1, ERK5. Kind of experiment: Western blot of ERK5 degradation in MOLT4 cells (0.1 or 1 μM). Also on record: immunoblotted with primary antibodies against ERK5 (Cell Signaling®); endogenous in cells; host or cells: MOLT4. The note with it: 5 hours, at 0.1 and 1 μM (FIG. 4). The method, then: as §1
MOLT4 cells were treated with 0.1 or 1 μM of bispecific compounds 15-20 for 5 hours. Cells were lysed and immunoblotted as described above with antibodies to ERK5 and β-Actin.

Another experiment has as its target T2, BRD4 (Homo sapiens, UniProt O60885).
T2 construct: endogenous in cells; host or cells: MOLT4
Kind of experiment: Western blot of BRD4 degradation in MOLT4 cells (dose curve). Conditions: 5 hours, 0.1, 0.25, 0.5, or 1 μM (FIG. 5). How it is done:
as §1
(§2) MOLT4 cells were treated with 0.1, 0.25, 0.5, or 1 μM of bispecific compounds 18 and 23 for 5 hours. Cells were lysed and immunoblotted as described above with antibodies to ERK5, BRD4, and β-Actin.

Experiment [5] deals with T1, ERK5. Kind of experiment: Western blot of ERK5 degradation in MOLT4 cells (dose curve). Also noted: immunoblotted with primary antibodies against ERK5 (Cell Signaling®); endogenous in cells; host or cells: MOLT4. Conditions: 5 hours, 0.1, 0.25, 0.5, or 1 μM (FIG. 5). The method, then:
as §1, §2

T1 sequence (Q13164 whole entry): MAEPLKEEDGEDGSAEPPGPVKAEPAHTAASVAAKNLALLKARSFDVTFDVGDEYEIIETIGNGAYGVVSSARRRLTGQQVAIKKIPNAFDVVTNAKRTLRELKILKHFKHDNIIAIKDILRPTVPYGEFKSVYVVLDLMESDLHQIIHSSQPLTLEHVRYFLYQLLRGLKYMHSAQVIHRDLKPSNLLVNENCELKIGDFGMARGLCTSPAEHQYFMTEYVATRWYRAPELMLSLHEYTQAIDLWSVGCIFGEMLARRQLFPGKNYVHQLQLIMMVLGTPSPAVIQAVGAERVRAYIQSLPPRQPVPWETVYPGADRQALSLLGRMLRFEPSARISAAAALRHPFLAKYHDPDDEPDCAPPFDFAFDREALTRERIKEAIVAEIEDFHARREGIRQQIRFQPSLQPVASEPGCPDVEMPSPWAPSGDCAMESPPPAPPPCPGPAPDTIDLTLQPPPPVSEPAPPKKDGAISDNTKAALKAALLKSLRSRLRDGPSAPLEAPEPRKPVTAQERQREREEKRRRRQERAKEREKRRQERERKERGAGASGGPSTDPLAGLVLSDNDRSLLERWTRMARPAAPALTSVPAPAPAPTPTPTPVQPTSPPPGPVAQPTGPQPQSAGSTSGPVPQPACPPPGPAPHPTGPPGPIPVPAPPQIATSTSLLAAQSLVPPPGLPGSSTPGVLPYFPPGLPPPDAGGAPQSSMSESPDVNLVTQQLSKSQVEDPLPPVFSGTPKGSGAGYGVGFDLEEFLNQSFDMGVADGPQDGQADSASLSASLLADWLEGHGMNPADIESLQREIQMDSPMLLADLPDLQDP

With `CC(C)C[C@H](NC(=O)[C@H](Cc1ccccc1)NC(=O)c1cnccn1)B(O)O` [Bortezomib], the “Rescue of ERK5 degradation induced by bispecific compound 7” value (shortened to “Rescue of ERK5 degradation induced”) on ERK5 [1] (pretreated 2 h with 0.1 μM) is recorded as “rescued the ERK5 degradation induced by bispecific compound 7”.
Turning to `NS(=O)(=O)OC[C@@H]1C[C@@H](n2ccc3c(N[C@H]4CCc5ccccc54)ncnc32)C[C@@H]1O` [MLN4924], the “Rescue of ERK5 degradation induced” value at ERK5 [1] (pretreated 2 h with 1 μM) is “rescued the ERK5 degradation induced by bispecific compound 7”.
Regarding `CCOc1cc(C(=O)N2CCC(N3CCN(C)CC3)CC2)ccc1Nc1ncc2c(n1)N(C1CCCC1)c1ccccc1C(=O)N2C` [XMD17-109], on ERK5 [1] (pretreated 2 h with 10 μM), the “Rescue of ERK5 degradation induced” value was “rescued the ERK5 degradation induced by bispecific compound 7”.
Take `Cc1ncsc1-c1ccc([C@H](C)NC(=O)[C@@H]2C[C@@H](O)CN2C(=O)[C@@H](NC(=O)CCCCCCCNC(=O)c2ccc(Nc3ncc4c(n3)N(C3CCCC3)c3ccccc3C(=O)N4C)cc2)C(C)(C)C)cc1` [compound 7, (2S,4R)-1-((S)-2-(8-(4-((11-cyclopentyl-5-methyl-6-oxo-6,11-dihydro-5H-benzo[e]pyrimido[5,4-b][1,4]diazepin-2-yl)amino)benzamido)octanamido)-3,3-dimethylbutanoyl)-4-hydroxy-N-((S)-1-(4-(4-methylthiazol-5-yl)phenyl)ethyl)pyrrolidine-2-carboxamide]: the “ERK5 degradation (Western blot)” value on ERK5 [2] and at ERK5 [3] was “induced the degradation of ERK5” each time. Also, the “Dependence of ERK5 degradation (mechanism)” value on ERK5 [1] (1 μM for 24 h after pretreatment with competitors/inhibitors (FIG. 3)) was “both ligand and proteasome dependent”.
Turning to `Cc1ncsc1-c1ccc([C@H](C)NC(=O)[C@@H]2C[C@@H](O)CN2C(=O)[C@@H](NC(=O)CCCCCN2CCN(C(=O)c3ccc(Nc4ncc5c(n4)N(C4CCCC4)c4ccccc4C(=O)N5C)cc3)CC2)C(C)(C)C)cc1` [compound 18, (2S,4R)-1-((S)-2-(6-(4-(4-((11-cyclopentyl-5-methyl-6-oxo-6,11-dihydro-5H-benzo[e]pyrimido[5,4-b][1,4]diazepin-2-yl)amino)benzoyl)piperazin-1-yl)hexanamido)-3,3-dimethylbutanoyl)-4-hydroxy-N-((S)-1-(4-(4-methylthiazol-5-yl)phenyl)ethyl)pyrrolidine-2-carboxamide], the “ERK5 degradation (Western blot)” value at ERK5 [4] and at ERK5 [5] was “induced the degradation of ERK5” in each case. The “BRD4 degradation (Western blot)” value at BRD4 is “induced the degradation of ERK5 and BRD4”.
Take `CCC(C)N1c2ccccc2C(=O)N(C)c2cnc(Cc3ccc(C(=O)N4CCN(CCCCCC(=O)N[C@H](C(=O)N5C[C@H](O)C[C@H]5C(=O)N[C@@H](C)c5ccc(-c6scnc6C)cc5)C(C)(C)C)CC4)cc3)nc21` (stereo partly drawn) [compound 23, (2S,4R)-1-((2S)-2-(6-(4-(4-((11-(sec-butyl)-5-methyl-6-oxo-6,11-dihydro-5H-benzo[e]pyrimido[5,4-b][1,4]diazepin-2-yl)methyl)benzoyl)piperazin-1-yl)hexanamido)-3,3-dimethylbutanoyl)-4-hydroxy-N-((S)-1-(4-(4-methylthiazol-5-yl)phenyl)ethyl)pyrrolidine-2-carboxamide]: on ERK5 [5], the “ERK5 degradation (Western blot)” value is reported as “induced the degradation of ERK5”.
